# Read-outs that look alike come from different tables or passages of the source.
# Columns and labels:
# [1] = test system: MDA-MB-231 breast cancer cell line; test: Long-term growth inhibition, crystal violet staining; format: cell-based, human
# Experimental: The human estrogen receptor and EGF receptor negative MDA-MB-231 (HTB 26) breast cancer cell line (obtained from ATCC, Rockville, USA) were cultured in McCoy's 5A medium containing L-glutamine, 2.2 g/l NaHCO3 and 5% fetal calf serum. Cells were maintained in a water saturated atmosphere (95% air/5% carbon dioxide) at 37° C. in 75-cm^2 culture flasks, and were serially passaged following trypsinization using 0.05% trypsin/0.02% EDTA.
# For proliferation assays tumor cell suspensions (100 μl/well) were seeded into 96-well flat bottomed microtitration plates at a density of ca. 15 cells/microscopic field (magnification 320×). After 2-3 days the culture medium was removed by suction and replaced by fresh medium (200 μl/well) containing varying concentrations of the compound of the formula 1 or vehicle (0.5% DMSO). Compound 1 was added as […] concentrated feed solutions. On every plate 16 wells served as controls and 16 wells were used per concentration of 1. After various times of incubation the cells were fixed with glutardialdehyde and stored in a refrigerator. At the end of the assay all plates were processed simultaneously (staining with 0.02% aqueous crystal violet solution (100 μl/well). Excess dye was removed by rinsing the trays with water for 20 min. The stain bound by the cells was redissolved in 70% ethanol (180 μl/well) while shaking the microplates for about 3 hours. Absorbance (proportional to cell mass) was measured at 578 nm using a BIOTEK 309 Autoreader. The results (mean values±standard deviation) were plotted as growth curves.
# CDK1 = CDK1 (Homo sapiens, UniProt P06493); test: Kinase inhibition under standard conditions, CDK1; format: biochemical
# SK-MEL-5 xenograft = test: Mouse xenograft model SK-MEL-5; format: in vivo; details: Melanoma, Raf/CDKN2A; oral twice daily dosing
# Experimental: (§1) The efficacy of the compound of the formula 1 was confirmed in mouse tumor xenograft models, employing the NMRI(nu/nu) strain of mice. For example, cells from the human tumor cell lines MDA-MB-231, U373, and HT29 were pre-incubated subcutaneously in several nude mice to select for the most robustly growing cell population. After having grown to a sufficient size after 2-3 weeks, a piece of about 2 mm^3 volume of the most suitable tumor was transplanted subcutaneously into the region of the thoracic mammary fat pads, an area ensuring a high degree of vascularization of the grafted tissue. […] During the course of the treatment, the weight of the animals and the size of the transplanted tumor was monitored three times a week. […] These doses are best determined separately for each individual mouse strain employed.
# (§2) To establish a solid tumour 3×10^6 tumor cells suspended in 100 μl of serum free medium (RPMI) were inoculated subcutaneously into the region of the thoracic mammary fat pads of 5 Male NMRI(nu/nu) mice of 8-10 weeks of age. […] During the course of the treatment body weight changes and tumor growth were recorded three times a week. Growth curves were plotted together with standard deviations and the significance of differences was determined using an unpaired t-test in FIG. 11. […]
# U251 xenograft = test: Mouse xenograft model U251; format: in vivo; details: Brain, CDKN2A/p53/PTEN; oral twice daily dosing
# Experimental: as §1, §2
# NCI-60 panel cell lines = test: NCI-60 panel growth inhibition screen; format: cell-based; details: for GI50: nominal concentration
# From the text: FIGS. 7a-h show the inhibitory potencies of compound 1 in the cell lines of the NCI panel from various cancers. The growth of cells treated with various concentrations of compound 1 was expressed in reference to untreated controls (100%) after 48 hr exposure. Negative growth values represent cell death. Actual concentrations of compound 1 are about two times lower than nominal due to well binding in the 96-well plate format.
# FIG. 8 represents the GI50 (50% growth inhibition, cross-hatch bars) and TGI (total growth inhibition, solid bars) values of all cells in the NCI-60 panel in relation to the attainable free mouse plasma concentration of orally applied compound 1, corrected for the reduction in actual inhibitor concentration by well binding. The oncogenic mutation spectrum of the cell lines is presented at the bottom.
# To further exemplify the breadth of anti-tumor activity of compounds 1-4 the NCI-60 panel was screened with compound 1. The spectrum of verified oncogenic driver mutations in these cell lines was recently elucidated to encompass mutations in raf, ras, CDKN2A (cdk inhibitor), p53, PI3K, PTEN, EGFR, APC, FLT3, RB1 among others. Cell lines generally have several of these mutations representative of stage III and IV cancers [Ikediobi et al., Mol. Cancer. Ther. 5, 2606-2612 (2006)]. […] The average concentration for total growth inhibition (TGI) was thus at 200 nM, i.e. about 10-times GI50. At sustained free plasma concentrations in vivo of about 200 nM, that can be achieved with practical forms of oral dosing and in the absence of special formulations, all cell lines would be inhibited by more than 50% without exception, and more than half would show no growth at all or would be killed (FIG. 8).
# T-47D xenograft = test: Mouse xenograft model T-47D; format: in vivo; details: Breast, p53/PI3K; oral twice daily dosing
# Experimental: as §1, §2
# OVCAR-3 xenograft = test: Mouse xenograft model OVCAR-3; format: in vivo; details: Ovarian, p53; oral twice daily dosing
# Experimental: as §1, §2
# Chain of CDK1 (P06493 whole entry, species assumed): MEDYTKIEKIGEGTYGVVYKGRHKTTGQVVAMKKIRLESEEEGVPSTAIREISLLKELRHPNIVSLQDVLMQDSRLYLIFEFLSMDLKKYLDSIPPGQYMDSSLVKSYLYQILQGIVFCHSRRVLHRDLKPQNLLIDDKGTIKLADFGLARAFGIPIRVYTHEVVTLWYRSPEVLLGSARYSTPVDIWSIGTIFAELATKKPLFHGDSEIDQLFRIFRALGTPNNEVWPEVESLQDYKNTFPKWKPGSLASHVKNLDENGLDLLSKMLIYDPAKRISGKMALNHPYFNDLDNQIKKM
# Chain of CDK1 (P14635 whole entry partner, species assumed): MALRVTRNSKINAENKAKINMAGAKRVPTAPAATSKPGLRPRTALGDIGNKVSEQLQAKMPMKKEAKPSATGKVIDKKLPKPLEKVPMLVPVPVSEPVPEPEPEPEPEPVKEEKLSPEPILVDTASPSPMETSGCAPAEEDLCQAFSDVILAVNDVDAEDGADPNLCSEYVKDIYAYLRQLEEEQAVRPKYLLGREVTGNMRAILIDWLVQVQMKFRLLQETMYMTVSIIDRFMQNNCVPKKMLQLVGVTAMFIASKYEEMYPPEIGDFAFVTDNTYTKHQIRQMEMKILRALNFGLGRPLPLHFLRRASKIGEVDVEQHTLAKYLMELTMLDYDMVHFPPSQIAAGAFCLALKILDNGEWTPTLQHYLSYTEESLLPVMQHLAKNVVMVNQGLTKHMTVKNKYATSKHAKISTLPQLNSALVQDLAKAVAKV
compound,measurement,setting,value
CNC(=O)[C@@]1(N)C[C@H]2O[C@]1(C)n1c3ccccc3c3c4c(c5c6ccccc6n2c5c31)C(=O)NC4 [Compound 1],growth of MDA-MB-231 cells,"[1]; 10 nM, 1 week of exposure",almost completely prevents the growth
same,prolonged effect on growth after a single short exposure,"[1]; MDA-MB-231, single exposure 1 to 6 hrs, 100 nM",sustained inhibition over at least one week
same,anti-tumor activity compared with cis-platin,[1]; MDA-MB-231 growth,substantially more potent and efficacious
same,anti-tumor activity compared with vinblastine,[1]; MDA-MB-231 growth,matches the activity of vinblastine
same,IC50,CDK1,43 nM
same,Mean % Inhibition,SK-MEL-5 xenograft,122%
same,N tumors with no/neg. growth,SK-MEL-5 xenograft,7 of 10
same,Mean % Inhibition,U251 xenograft,74%
same,N tumors with no/neg. growth,U251 xenograft,3 of 11
same,average concentration for total growth inhibition (TGI),NCI-60 panel cell lines; 48 hr exposure,200 nM
same,cell kill of HT29 cell line in vitro,"NCI-60 panel cell lines; HT29, highest exposures",cannot be killed
same,anti-proliferative activity across panel,"NCI-60 panel cell lines; lung, colon, brain, skin, ovarian, kidney, prostate, breast cancer lines",Significant anti-proliferative activity was seen in all cell lines
same,GI50,"NCI-60 panel cell lines; 48 hr exposure, read-out: GI50 potency range across cell lines",≤ 150 nM
same,GI50,"NCI-60 panel cell lines; 48 hr exposure, read-out: average 50% growth inhibition (GI50) across all cell lines",32 nM
same,Mean % Inhibition,T-47D xenograft,81%
same,N tumors with no/neg. growth,T-47D xenograft,4 of 10
same,Mean % Inhibition,OVCAR-3 xenograft,78%
same,N tumors with no/neg. growth,OVCAR-3 xenograft,4 of 11

# From patent US8022056B2, “Compositions and methods for the treatment of cancer” (Tautatis, Inc, priority 2006, dated 2011)
